Measured values reported in patent US9808470B2, “Estrogenic components for use in the treatment of neurological disorders” (UNIVERSITE DE LIEGE, priority 2012, dated 2017).

Legend:
Type in all cases: in vivo
[1] = test system: vascular endothelial growth factor (VEGF); test: Ex.4 therapeutic HIE rat model: VEGF staining
Method: The sections were heated in 10 mmol/L citrate buffer (pH 6.0) at 100° C. for 10 minutes. Endogenous peroxidase activity was blocked with 3% hydrogen peroxide for 10 minutes and after a second blocking with 5% normal goat serum, the sections were incubated with anti-doublecortin (DCX) antibody, diluted 1:1000 (rabbit polyclonal antibody; Abcam, Cambridge, UK) and anti-vascular endothelial growth factor (VEGF) antibody, diluted 1:100 (mouse monoclonal antibody; Abcam, Cambridge, UK) overnight at 4° C. After rinsing, Alexa Fluor® goat anti-rabbit, diluted 1:1000 and Alexa Fluor® goat anti-mouse, diluted 1:1000 (Invitrogen Inc., Ghent, Belgium) were added and sections were incubated 1 h at room temperature. Mounting medium containing 4′,6-diamidino-2-phenylindole (DAPI) for fluorescent studies was used (Vector Laboratories). Samples were analyzed with the aid of a microscope (Olympus Vanox AHBT3, Olympus), and the ImageJ software (NIH). The percentage of positively stained cells was quantified as a sum of positively stained either DCX or VEGF cells divided by the total number of DAPI positive cells expressed in percentage.
(§1) To study the therapeutic effect of estetrol, newborn rat pups were assigned to one of the following 6 groups at postnatal day 7: sham group (n=29), vehicle group (n=20), 1 mg/kg E4 group (n=16), 5 mg/kg E4 group (n=19), 10 mg/kg day E4 (n=17) and 50 mg/kg day E4 group (n=15). At postnatal day 7 animals were anesthetized with isoflurane (induction, 3.0%; maintenance, 1.5%), and the rat pups from vehicle and E4 groups passed through surgery encompassing left common carotid artery double ligation and cut. After surgery, the pups were returned to their dams and allowed to recover for 1 hour. The pups were then placed in a humidified hypoxic in vivo cabinet (CoyLab). Hypoxia was produced by the inhalation of 11%-8% of oxygen balanced by nitrogen at decreased concentration of oxygen for 20 minutes, followed by inhalation of 8% oxygen and 92% nitrogen at constant concentration for 35 minutes. All the manipulations were performed at 37° C.
(§2) Upon retrieval from the hypoxia chamber the rat pups were injected intraperitoneally either by vehicle (vehicle group) or by E4 (1 mg/kg, 5 mg/kg, 10 mg/kg or 50 mg/kg) in accordance to the group assignment. The animals from the sham group went through similar procedures but proceeded neither left common carotid artery ligation and cut followed by hypoxia nor vehicle or estetrol administration. Rat pups recovered with their dams until being sacrificed at postnatal day 14.

[2] = test system: Microtubule-associated protein 2 (MAP2); test: Ex.4 therapeutic HIE rat model: MAP2 staining; conditions: PND14
Method: The brain sections were processed for immunohistochemical detection of neuronal cytoskeletal disruption. For antigen retrieval, the sections were heated in 10 mmol/L citrate buffer (pH 6.0) at 100° C. for 10 minutes. Endogenous peroxidase activity was blocked with 3% hydrogen peroxide for 10 minutes and after a second blocking with 5% normal goat serum, the sections were incubated with anti-microtubule-associated protein 2 (MAP2) antibody, diluted 1:1000 (mouse monoclonal antibody; Sigma, St. Louis, Mo., US) 1 h at room temperature. After rinsing, biotinylated goat anti-mouse immunoglobulin G (Vector Laboratories, Burlingame, Calif.) was added, and antibody detection was performed with the avidin-biotin complex method (Vector Laboratories), with 3,3′-diaminobenzidine (DAB) as the chromogen. Following the reaction with DAB, the slides were washed, dehydrated, and coverslipped.
Samples were analyzed with the aid of an image scanner (Nanozoomer Virtual Microscopy, Hamamatsu, Tokyo, Japan) and the ImageJ software (NIH, US). The MAP2 positive areas in the ipsilateral and contralateral hemispheres were measured. The ratio of the MAP2 positive areas was calculated as the MAP2 positive area of the ipsilateral hemisphere divided by the MAP2 positive area of the contralateral hemisphere. The ratio of the MAP2 positive area in the Sham group was considered by default as 1.0.
as §1, §2

[3] = Ex.3 neuroprotective HIE rat model: brain weight; conditions: PND14
Method: Animals were then perfused transcardially with 0.9% saline solution at 4° C., and then with 4% paraformaldehyde in a 0.1-mol/L phosphate-buffered saline solution (pH 7.4) at 4° C. The brains were quickly isolated, weighed and immersed in the same fixative solution at 4° C. for 24 hours, dehydrated with a graded series of ethanol and xylene, and embedded in paraffin.
Newborn rat pups were assigned to one of the following 6 groups from postnatal day 4: Sham group (n=24), Vehicle group (n=14), E4 1 mg/kg/per day group (n=11), E4 5 mg/kg/per day group (n=14), E4 10 mg/kg/per day group (n=14), or E4 50 mg/kg/per day group (n=19). From postnatal day 4, rat pups were intraperitoneally injected either vehicle (Vehicle group) or E4 (1, 5, 10, or 50 mg/kg/per day in accordance to the E4 group assignment) or neither vehicle nor E4 (Sham group). At day 7, 30 minutes after last injection, animals were anesthetized with isoflurane (induction, 3.0%; maintenance, 1.5%), and the rat pups from Vehicle and E4 groups passed through surgery encompassing left common carotid artery double ligation and cut. After the procedure, the pups were returned to their dams and were allowed to recover for 1 hour. The pups were then placed in the humidified hypoxic in vivo cabinet (CoyLab, Grass Lake, Mich., USA). Hypoxia was produced by the inhalation of 11%-8% of oxygen balanced by nitrogen at decreased concentration of oxygen for 20 minutes, followed by inhalation of 8% oxygen and 92% nitrogen at constant concentration for 35 minutes. All the manipulations were performed at 37° C. The Sham group went through similar procedures without left common carotid artery ligation followed by hypoxia nor injection. Rat pups recovered with their dams and reared normally until being sacrificed at postnatal day 14.

C[C@]12CC[C@@H]3c4ccc(O)cc4CC[C@H]3[C@@H]1[C@@H](O)[C@@H](O)[C@@H]2O [E4, 1,3,5(10)-estratrien-3,15α,16α,17β-tetrol]
percentage of VEGF positively stained cells ([1]; 5 mg/kg E4 single ip dose after HI, CA1): 37.4±4.833%
percentage of VEGF positively stained cells ([1]; 10 mg/kg E4 single ip dose after HI, CA1): 37.1±3.84%
percentage of VEGF positively stained cells ([1]; 10 mg/kg E4 single ip dose after HI, cortex): 49.4±4.949%
percentage of VEGF positively stained cells ([1]; 50 mg/kg E4 single ip dose after HI, CA1): 45.1±4.753%
percentage of VEGF positively stained cells ([1]; E4 1, 5, 10, 50 mg/kg single ip dose after HI, CA2/CA3, between study groups): not significantly different between the study groups
VEGF staining ([1]; E4 1, 5, 10, 50 mg/kg single ip dose after HI, DG, among study groups): neither DCX nor VEGF staining was significantly different
ratio of MAP2-positive area (ipsilateral/contralateral) ([2]; 1 mg/kg E4 single ip dose after HI): 0.943±0.028
ratio of MAP2-positive area (ipsilateral/contralateral) ([2]; 5 mg/kg E4 single ip dose after HI): 0.89±0.037
ratio of MAP2-positive area (ipsilateral/contralateral) ([2]; 10 mg/kg E4 single ip dose after HI): 0.938±0.044
ratio of MAP2-positive area (ipsilateral/contralateral) ([2]; 50 mg/kg E4 single ip dose after HI): 0.966±0.036
brain weight ([3]; 1 mg/kg E4 ip PND4-7 before HI): 1.155 ± 0.022 g
brain weight ([3]; 5 mg/kg E4 ip PND4-7 before HI): 1.181 ± 0.023 g
brain weight ([3]; 10 mg/kg E4 ip PND4-7 before HI): 1.179 ± 0.012 g
brain weight ([3]; 50 mg/kg E4 ip PND4-7 before HI): 1.163 ± 0.016 g
